Results: ChEMBL document CHEMBL1955803, “Preclinical in vivo evaluation of efficacy, pharmacokinetics, and pharmacodynamics of a novel MEK1/2 kinase inhibitor RO5068760 in multiple tumor models” (Mol Cancer Ther, 2010)
The source made the active and inactive calls. No cut-off for these calls is given here.

What was measured:
[1] = target: T1, Dual specificity mitogen-activated protein kinase kinase 1 (Homo sapiens, UniProt Q02750); assay: Inhibition of MEK1
[2] = target: T1, Dual specificity mitogen-activated protein kinase kinase 1; assay: Inhibition of MEK1 in human MIA PaCa-2 cells assessed as inhibition of ERK phosphorylation by Western blot analysis; assay type: cell-based
[3] = tested on: NCI-H460; assay: Growth inhibition of human […] mutant by MTT assay; assay type: functional, cell-based
[4] = Cell cycle arrest in human LOX cells assessed as accumulation at G1 phase; assay type: functional, cell-based
[5] = tested on: LOX; assay: Induction of apoptosis in human LOX cells; assay type: functional, cell-based
[6] = Antitumor activity against human LOX cells expressing B-Raf V600E mutant xenografted in nude mouse assessed as tumor growth inhibition at 50 mg/kg, po bid; assay type: functional; details: read-out: GI
[7] = tested on: Mus musculus; assay: Toxicity in human LOX cells expressing B-Raf V600E mutant xenografted nude mouse assessed as gross signs of adverse effect at 6.25 to 200 mg/kg, po bid for 3 weeks; assay type: organism-based; design: dose 6.25-200 mg/kg, route oral; details: in vivo, 504 h
[8] = tested on: Mus musculus; assay: Toxicity in human LOX cells expressing B-Raf V600E mutant xenografted nude mouse assessed as gross signs of adverse effect at 500 mg/kg, po administered weekly once for 3 weeks; assay type: organism-based; design: dose 500 mg/kg, route oral; details: in vivo, 504 h
[9] = tested on: Mus musculus; assay: Inhibition of MEK-mediated ERK phosphorylation in tumor of human LOX cells expressing B-Raf V600E mutant xenografted nude mouse at 100 mg/kg, po after 12 hrs by Western blot analysis relative to control; assay type: functional
[10] = Plasma concentration in human LOX cells expressing B-Raf V600E mutant xenografted nude mouse at 100 mg/kg, po after 1 hr; assay type: ADME, organism-based; design: dose 100 mg/kg, route oral
[11] = Plasma concentration in human LOX cells expressing B-Raf V600E mutant xenografted nude mouse at 100 mg/kg, po after 8 hrs; assay type: ADME, organism-based; design: dose 100 mg/kg, route oral
[12] = Drug level in human LOX cells expressing B-Raf V600E mutant xenografted nude mouse tumor at 100 mg/kg, po after 4 hrs; assay type: ADME, organism-based, Neoplasm; design: dose 100 mg/kg, route oral; details: read-out: Drug uptake
[13] = Drug level in human LOX cells expressing B-Raf V600E mutant xenografted nude mouse tumor at 100 mg/kg, po after 8 hrs; assay type: ADME, organism-based, Neoplasm; design: dose 100 mg/kg, route oral; details: read-out: Drug uptake
[14] = tested on: Mus musculus; assay: Inhibition of MEK-mediated ERK phosphorylation in tumor of human HT-29 cells expressing B-Raf V600E mutant xenografted nude mouse at 50 mg/kg, po after 8 hrs by Western blot analysis relative to control; assay type: functional; details: HT-29, 8 h
[15] = tested on: Mus musculus; assay: Inhibition of MEK-mediated ERK phosphorylation in tumor of human HT-29 cells expressing B-Raf V600E mutant xenografted nude mouse at 50 mg/kg, po after 12 hrs by Western blot analysis relative to control; assay type: functional; details: HT-29, 12 h
[16] = Drug level in human HT-29 cells expressing B-Raf V600E mutant xenografted nude mouse tumor at 50 mg/kg, po after 8 hrs; assay type: ADME, organism-based, Neoplasm; design: dose 50 mg/kg, route oral; details: read-out: Drug uptake
[17] = tested on: Mus musculus; assay: Inhibition of MEK-mediated ERK phosphorylation in tumor of human HT-29 cells expressing B-Raf V600E mutant xenografted nude mouse at 100 mg/kg, po after 8 hrs by Western blot analysis relative to control; assay type: functional; details: HT-29, 8 h
[18] = Plasma concentration in human HT-29 cells expressing B-Raf V600E mutant xenografted nude mouse at 100 mg/kg, po after 8 hrs; assay type: ADME, organism-based; design: dose 100 mg/kg, route oral
[19] = Drug level in human HT-29 cells expressing B-Raf V600E mutant xenografted nude mouse tumor at 100 mg/kg, po after 2 hrs; assay type: ADME, organism-based, Neoplasm; design: dose 100 mg/kg, route oral; details: read-out: Drug uptake
[20] = tested on: Mus musculus; assay: Average drug concentration in human LOX cells expressing B-Raf V600E mutant xenografted nude mouse plasma at 6.25 mg/kg, po bid; assay type: ADME, organism-based; design: dose 6.25 mg/kg, route oral; details: in vivo
[21] = AUC (0 to 12 hrs) in human LOX cells expressing B-Raf V600E mutant xenografted nude mouse at 12.5 mg/kg, po bid; assay type: ADME, organism-based; design: time < 12 hr, dose 12.5 mg/kg, route oral; details: in vivo
[22] = tested on: Mus musculus; assay: Average drug concentration in human LOX cells expressing B-Raf V600E mutant xenografted nude mouse plasma at 25 mg/kg, po bid; assay type: ADME, organism-based; design: dose 25 mg/kg, route oral; details: in vivo
[23] = Cmax in human HT-29 cells expressing B-Raf V600E mutant xenografted nude mouse at 25 mg/kg, po bid; assay type: ADME, organism-based; design: dose 25 mg/kg, route oral; details: in vivo
[24] = tested on: Mus musculus; assay: Average drug concentration in human HT-29 cells expressing B-Raf V600E mutant xenografted nude mouse plasma at 50 mg/kg, po bid; assay type: ADME, organism-based; design: dose 50 mg/kg, route oral; details: in vivo
[25] = Cmax in human H460 cells expressing K-Ras Q61H mutant xenografted nude mouse at 25 mg/kg, po bid; assay type: ADME, organism-based; design: dose 25 mg/kg, route oral; details: in vivo
[26] = Cmax in human H460 cells expressing K-Ras Q61H mutant xenografted nude mouse at 200 mg/kg, po qd; assay type: ADME, organism-based; design: dose 200 mg/kg, route oral; details: in vivo
[27] = Cmax in human MIAPaCa2 cells expressing K-Ras G12C mutant xenografted nude mouse at 25 mg/kg, po bid; assay type: ADME, organism-based, MIA PaCa-2; design: dose 25 mg/kg, route oral; details: in vivo
[28] = AUC (0 to 12 hrs) in human MIAPaCa2 cells expressing K-Ras G12C mutant xenografted nude mouse at 25 mg/kg, po bid; assay type: ADME, organism-based, MIA PaCa-2; design: time < 12 hr, dose 25 mg/kg, route oral; details: in vivo
[29] = tested on: Mus musculus; assay: Average drug concentration in human MIAPaCa2 cells expressing K-Ras G12C mutant xenografted nude mouse plasma at 100 mg/kg, po bid; assay type: ADME, organism-based, MIA PaCa-2; design: dose 100 mg/kg, route oral; details: in vivo
[30] = tested on: Mus musculus; assay: Inhibition of MEK-mediated ERK phosphorylation in po dosed human LOX cells expressing B-Raf V600E mutant xenografted nude mouse plasma by Western blot analysis; assay type: functional, organism-based
[31] = tested on: Mus musculus; assay: Inhibition of MEK-mediated ERK phosphorylation in po dosed human HT-29 cells expressing B-Raf V600E mutant xenografted nude mouse plasma by Western blot analysis; assay type: functional, organism-based; details: HT-29, Plasma
[32] = tested on: Mus musculus; assay: Inhibition of MEK-mediated ERK phosphorylation in po dosed human HT-29 cells expressing B-Raf V600E mutant xenografted nude mouse tumor by Western blot analysis; assay type: functional, organism-based
[33] = tested on: NCI-H460; assay: Antitumor activity against human H460 cells expressing K-Ras Q61H mutant xenografted in nude mouse assessed as tumor growth inhibition at 100 mg/kg, po bid; assay type: functional; details: read-out: GI
[34] = tested on: NCI-H460; assay: Antitumor activity against human H460 cells expressing K-Ras Q61H mutant xenografted in nude mouse assessed as tumor growth inhibition at 200 mg/kg, po bid; assay type: functional; details: read-out: GI
[35] = tested on: NCI-H460; assay: Antitumor activity against human H460 cells expressing K-Ras Q61H mutant xenografted in nude mouse assessed as tumor growth inhibition at 500 mg/kg, po administered weekly once; assay type: functional; details: read-out: GI
[36] = target: T2, Dual specificity mitogen-activated protein kinase kinase; MEK1/2 (Homo sapiens) (UniProt P36507+Q02750); details: HT-29, 2 to 10 uM
T2 sequence (P36507 whole entry, looked up): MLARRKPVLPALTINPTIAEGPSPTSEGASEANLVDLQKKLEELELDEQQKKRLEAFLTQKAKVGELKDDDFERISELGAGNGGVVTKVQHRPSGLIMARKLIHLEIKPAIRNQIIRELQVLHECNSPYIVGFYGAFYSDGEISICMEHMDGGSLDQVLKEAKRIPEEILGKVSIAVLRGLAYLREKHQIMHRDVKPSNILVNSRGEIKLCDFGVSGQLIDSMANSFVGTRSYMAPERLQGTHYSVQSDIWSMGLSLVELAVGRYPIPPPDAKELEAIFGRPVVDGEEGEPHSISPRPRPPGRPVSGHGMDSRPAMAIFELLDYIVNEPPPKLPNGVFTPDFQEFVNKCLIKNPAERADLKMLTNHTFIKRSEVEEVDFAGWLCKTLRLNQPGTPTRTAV
T2 sequence (Q02750 whole entry, looked up): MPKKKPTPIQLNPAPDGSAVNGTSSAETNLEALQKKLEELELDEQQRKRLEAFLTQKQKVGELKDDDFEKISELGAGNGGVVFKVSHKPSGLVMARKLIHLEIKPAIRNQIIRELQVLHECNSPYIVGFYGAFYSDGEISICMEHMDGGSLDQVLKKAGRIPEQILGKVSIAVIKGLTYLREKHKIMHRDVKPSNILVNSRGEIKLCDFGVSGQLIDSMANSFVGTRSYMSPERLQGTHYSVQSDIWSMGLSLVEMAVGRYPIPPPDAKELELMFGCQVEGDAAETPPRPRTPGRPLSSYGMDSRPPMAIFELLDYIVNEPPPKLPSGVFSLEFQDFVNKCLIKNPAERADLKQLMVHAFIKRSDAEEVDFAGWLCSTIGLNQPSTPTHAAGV
Description: Inhibition of MEK1/2 phosphorylation in human HT-29 cells at 2 to 10 uM by Western blot analysis

[37] = target: T2, Dual specificity mitogen-activated protein kinase kinase; MEK1/2 (Homo sapiens); details: HT-29, 2 to 10 uM; remark: listed apart in the source
Description: Inhibition of MEK1/2 in human HT-29 cells assessed as down regulation of CDK4/cyclin D1 expression at 2 to 10 uM by Western blot analysis

[38] = target: T2, Dual specificity mitogen-activated protein kinase kinase; MEK1/2 (Homo sapiens); details: HT-29, 2 to 10 uM; remark: listed apart in the source
Description: Inhibition of MEK1/2 in human HT-29 cells assessed as upregulation of p27 expression at 2 to 10 uM by Western blot analysis

[39] = target: T2, Dual specificity mitogen-activated protein kinase kinase; MEK1/2 (Homo sapiens); details: LOX, 2 to 10 uM
Description: Inhibition of MEK1/2 in human LOX cells assessed as down regulation of CDK4/cyclin D1 expression at 2 to 10 uM by Western blot analysis

T1 sequence (Q02750 whole entry): as the sequence (Q02750 whole entry, looked up) above

IC50 [1]: 25 nM | IC50 [2]: 69 nM | IC50 [3]: 300 nM | IC90 [3]: 3080 nM | concentration at 1 h [10]: 4840 ng/mL | concentration at 8 h [11]: 1410 ng/mL | concentration at 4 h [12]: 2630 ng/g | concentration at 8 h [13]: 1160 ng/g | concentration at 8 h [16]: 906 ng/g | concentration at 8 h [18]: 741 ng/mL | concentration at 2 h [19]: 2090 ng/g | Cave [20]: 331 ng/mL | AUC at 12 h [21]: 4660 ng·h/mL | Cave [22]: 833 ng/mL | Cmax [23]: 911 ng/mL | Cave [24]: 609 ng/mL | Cmax [25]: 2750 ng/mL | Cmax [26]: 20700 ng/mL | Cmax [27]: 3960 ng/mL | AUC at 12 h [28]: 12700 ng·h/mL | Cave [29]: 2725 ng/mL | EC50 [30]: 1360 nM | EC50 [31]: 3350 nM | EC50 [32]: 1001 ng/g | inhibition [36]: Active | inhibition [37]: Active | inhibition [38]: Active | inhibition [39]: Active
SMILES: C[C@@H](c1ccccc1)[C@@H](C(=O)Nc1ccc(I)cc1F)N1C(=O)N[C@H](c2ccc(OC[C@H](O)CO)cc2)C1=O
Activity [4]: Active | Activity [5]: Active | inhibition in vivo at 50 mg/kg [6]: > 100% | Activity [7]: Non-toxic | Activity [8]: Non-toxic | inhibition in vivo at 100 mg/kg [9]: 12% | inhibition in vivo at 50 mg/kg [14]: 12% | inhibition in vivo at 50 mg/kg [15]: 0% | inhibition in vivo at 100 mg/kg [17]: 0% | inhibition in vivo at 100 mg/kg [33]: 90% | inhibition in vivo at 200 mg/kg [34]: 80% | inhibition in vivo at 500 mg/kg [35]: 48%
